Results: patent publication US20250179059A1 (The Regents of the University of California, priority 2021, published 2025)
Read-outs that look alike come from different tables or passages of the source.

Assays:
[1] = target: T1, human BRD4 bromodomain II (Homo sapiens, UniProt O60885); assay: Bromodomain binding assay (AlphaScreen), BRD4 BDII
T1 construct: human BRD4 bromodomain II [based on Genbank NM_058243, residues 349-460]; host or cells: E. coli
Method in brief: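 Inhibition of acetyl-H4 peptide binding to human BRD4 bromodomains is measured by bead-based proximity (AlphaScreen) in pH 7.5 HEPES buffer containing 0.05% CHAPS and 0.1% BSA. Ten compound concentrations in 3-fold steps give competitive binding IC50s.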

[2] = system: human SKM-1 acute myeloid leukemia cells; assay: SKM-1 antiproliferation cell-based assay (ATPlite); conditions: Homo sapiens
Method in brief: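 Log-phase cells in RPMI 1640/15% FBS were seeded at 34722 cells/mL and exposed for 4 days to nine-concentration DMSO serial dilutions in triplicate. Viability was read as ATP luminescence (ATPlite 1step), and IC50 values came from variable-slope non-linear regression.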

[3] = BRD4 BDII AlphaScreen assay, read-out: BRD4 BD2 IC50
[4] = SKM-1, SKM-1 antiproliferation assay
[5] = AlphaScreen assay, Table C2, read-out: BRD4 BDII IC50
[6] = SKM-1, 96 h, SKM-1 antiproliferation assay, 4 days, Table C2

SMILES | IC50 [1, 3] | GI50 [2, 4] | IC50 [1, 5] | GI50 [2, 6]
Cc1cc(-c2ccc(-n3ccn(C)c3=O)c(Cl)c2)c(O)c(-c2ccnc(N3CCN(C(C)(C)C)CC3)c2)n1 [Example 998, 1-(4-(2′-(4-(tert-butyl)piperazin-1-yl)-3-hydroxy-6-methyl-[2,4′-bipyridin]-4-yl)-2-chlorophenyl)-3-methyl-1H-imidazol-2(3H)-one] | 1 to 10 nM | 0.3 to 30 nM |  | 
CC(C)N1CCC2CN(c3cc(-c4cc(F)cc(-c5ccc(-n6ccn(C)c6=O)c(Cl)c5)c4O)ccn3)CC21 (stereo not shown) [Example 727, 1-(3-chloro-5′-fluoro-2′-hydroxy-3′-(2-(1-isopropylhexahydropyrrolo[3,4-b]pyrrol-5(1H)-yl)pyridin-4-yl)-[1,1′-biphenyl]-4-yl)-3-methyl-1H-imidazol-2(3H)-one] |  |  | 0.01 to 1 nM | 0.3 to 30 nM
COc1ncc(-c2cc(F)cc(-c3ccc(-n4ccn(C)c4=O)c(Cl)c3)c2O)cc1N1CCCN(C(C)(C)C)CC1 [Example 853, 1-(3′-(5-(4-(tert-Butyl)-1,4-diazepan-1-yl)-6-methoxypyridin-3-yl)-3-chloro-5′-fluoro-2′-hydroxy-[1,1′-biphenyl]-4-yl)-3-methyl-1H-imidazol-2(3H)-one] | 0.01 to 1 nM | 0.3 to 30 nM |  | 
Cn1ccn(-c2ccc(-c3cc(F)cc(-c4ccnc(N5CCNC(C6CC6)C5)c4)c3O)cc2Cl)c1=O (stereo not drawn) [Example 643, 1-(3-chloro-3′-(2-(3-cyclopropylpiperazin-l-yl)pyridin-4-yl)-5′-fluoro-2′-hydroxy-[1,1′-biphenyl]-4-yl)-3-methyl-1H-imidazol-2(3H)-one] |  |  | 0.01 to 1 nM | 30 to 300 nM
Cn1ccn(-c2ccc(-c3cc(F)cc(-c4ccnc(N5CCC(C)(NC(=O)OC(C)(C)C)C5)c4)c3O)cc2Cl)c1=O (stereo not shown) [Example 776, tert-butyl (1-(4-(3′-chloro-5-fluoro-2-hydroxy-4′-(3-methyl-2-oxo-2,3-dihydro-1H-imidazol-1-yl)-[1,1′-biphenyl]-3-yl)pyridin-2-yl)-3-methylpyrrolidin-3-yl)carbamate] |  |  | 10 to 100 nM | 30 to 300 nM
Cn1ccn(-c2ccc(-c3cc(F)cc(-c4cnc(OC(F)F)c(N5CCN(C(C)(C)C)CC5)c4)c3O)cc2Cl)c1=O [Example 823, 1-(3′-(5-(4-(tert-butyl)piperazin-1-yl)-6-(difluoromethoxy)pyridin-3-yl)-3-chloro-5′-fluoro-2′-hydroxy-[1,1′-biphenyl]-4-yl)-3-methyl-1H-imidazol-2(3H)-one] |  |  | 1 to 10 nM | 0.3 to 30 nM
COc1ncc(-c2cc(F)cc(-c3ccc(-n4ccn(C)c4=O)c(Cl)c3)c2O)cc1N1CC2CCC(C1)N2C(C)C [Example 836, 1-(3-chloro-5′-fluoro-2′-hydroxy-3′-(5-(8-isopropyl-3,8-diazabicyclo[3.2.1]octan-3-yl)-6-methoxypyridin-3-yl)-[1,1′-biphenyl]-4-yl)-3-methyl-1H-imidazol-2(3H)-one] |  |  | 1 to 10 nM | 0.3 to 30 nM
CC(=O)Nc1ccc(-c2cccc(-c3ccnc(N4CC[C@@H](N)C4)c3)c2O)cc1F [Example 261, (R)-N-(3′-(2-(3-aminopyrrolidin-1-yl)pyridin-4-yl)-3-fluoro-2′-hydroxy-[1,1′-biphenyl]-4-yl)acetamide] |  |  | 1 to 10 nM | 30 to 300 nM
Cn1ccn(-c2ccc(-c3cc(F)cc(-c4cc(N5CCNCC5)c5cc[nH]c5c4)c3O)cc2Cl)c1=O [Example 479, 1-(3-chloro-5′-fluoro-2′-hydroxy-3′-(4-(piperazin-1-yl)-1H-indol-6-yl)-[1,1′-biphenyl]-4-yl)-3-methyl-1H-imidazol-2(3H)-one] |  |  | 1 to 10 nM | 0.3 to 30 nM
Cn1ccn(-c2ccc(-c3cc(F)cc(-c4cncc(N5CC6CNC(C6)C5)c4)c3O)cc2Cl)c1=O (stereo not shown) [Example 572] |  |  | 0.01 to 1 nM | 0.3 to 30 nM
Cn1ccn(-c2ccc(-c3cc(F)cc(-c4ccnc(N5CCN6C(=O)OC[C@@H]6C5)c4)c3O)cc2Cl)c1=O [Example 560, (S)-7-(4-(3′-chloro-5-fluoro-2-hydroxy-4′-(3-methyl-2-oxo-2,3-dihydro-1H-imidazol-1-yl)-[1,1′-biphenyl]-3-yl)pyridin-2-yl)tetrahydro-1H-oxazolo[3,4-a]pyrazin-3(5H)-one] |  |  | 1 to 10 nM | 30 to 300 nM
C[C@H]1CN(c2cc(-c3cc(F)cc(-c4ccc(-n5ccn(C)c5=O)c(Cl)c4)c3O)cc3[nH]ncc23)CCN1 [Example 595, (S)-1-(3-chloro-5′-fluoro-2′-hydroxy-3′-(4-(3-methylpiperazin-1-yl)-1H-indazol-6-yl)-[1,1′-biphenyl]-4-yl)-3-methyl-1H-imidazol-2(3H)-one] |  |  | 1 to 10 nM | 0.3 to 30 nM
Cn1ccn(-c2ccc(-c3cc(F)cc(-c4ccnc(N5CCN[C@H](CO)C5)c4)c3O)cc2Cl)c1=O [Example 556, (S)-1-(3-chloro-5′-fluoro-2′-hydroxy-3′-(2-(3-(hydroxymethyl)piperazin-1-yl)pyridin-4-yl)-[1,1′-biphenyl]-4-yl)-3-methyl-1H-imidazol-2(3H)-one] |  |  | 1 to 10 nM | 0.3 to 30 nM
Cn1ccn(-c2ccc(-c3cc(F)cc(-c4ccnc(N5CCC(N)CC5)c4)c3O)cc2Cl)c1=O [Example 414, 1-(3′-(2-(4-aminopiperidin-1-yl)pyridin-4-yl)-3-chloro-5′-fluoro-2′-hydroxy-[1,1′-biphenyl]-4-yl)-3-methyl-1H-imidazol-2(3H)-one] |  |  | 0.01 to 1 nM | 30 to 300 nM
C[C@@H]1CN(c2cc(-c3cccc(-c4ccc(N5CCN(C)C5=O)c(Cl)c4)c3O)ccn2)CCN1 [Example 294, (R)-1-(3-chloro-2′-hydroxy-3′-(2-(3-methylpiperazin-1-yl)pyridin-4-yl)-[1,1′-biphenyl]-4-yl)-3-methylimidazolidin-2-one] |  |  | 1 to 10 nM | 30 to 300 nM
CC(=O)Nc1ccc(-c2cccc(-c3ccnc(N4CCC(O)CC4)c3)c2O)cc1F [Example 272, N-(3-fluoro-2′-hydroxy-3′-(2-(4-hydroxypiperidin-1-yl)pyridin-4-yl)-[1,1′-biphenyl]-4-yl)acetamide] |  |  | 10 to 100 nM | 300 to 3000 nM
CCC1(O)CCN(c2cc(-c3cc(F)cc(-c4ccc(-n5ccn(C)c5=O)c(Cl)c4)c3O)ccn2)C1 (stereo not shown) [Example 737, 1-(3-chloro-3′-(2-(3-ethyl-3-hydroxypyrrolidin-1-yl)pyridin-4-yl)-5′-fluoro-2′-hydroxy-[1,1′-biphenyl]-4-yl)-3-methyl-1H-imidazol-2(3H)-one] |  |  | 0.01 to 1 nM | 0.3 to 30 nM
CN1CCN(c2ccc(-c3cccc(-c4cc(CN)cc(N5CCNCC5)c4)c3O)cc2Cl)C1=O [Example 326, 1-(3″-(aminomethyl)-3-chloro-2′-hydroxy-5″-(piperazin-1-yl)-[1,1′:3′,1″-terphenyl]-4-yl)-3-methylimidazolidin-2-one] |  |  | 10 to 100 nM | 300 to 3000 nM
Cn1ccn(-c2ccc(-c3cc(F)cc(-c4cnnc(N5CC[C@@](C)(O)C5)c4)c3O)cc2Cl)c1=O [Example 832, (R)-1-(3-chloro-5′-fluoro-2′-hydroxy-3′-(6-(3-hydroxy-3-methylpyrrolidin-1-yl)pyridazin-4-yl)-[1,1′-biphenyl]-4-yl)-3-methyl-1H-imidazol-2(3H)-one] |  |  | 0.01 to 1 nM | 0.3 to 30 nM
Cn1ccn(-c2ccc(-c3cc(F)cc(-c4cc(N5CC[C@H](N)C5)c5cn[nH]c5c4)c3O)cc2Cl)c1=O [Example 558, (S)-1-(3′-(4-(3-aminopyrrolidin-1-yl)-1H-indazol-6-yl)-3-chloro-5′-fluoro-2′-hydroxy-[1,1′-biphenyl]-4-yl)-3-methyl-1H-imidazol-2(3H)-one] |  |  | 1 to 10 nM | 0.3 to 30 nM
Cn1ccn(-c2ccc(-c3cc(F)cc(-c4ccc(=O)n(C5CCNCC5)c4)c3O)cc2Cl)c1=O [Example 486, 5-(3′-chloro-5-fluoro-2-hydroxy-4′-(3-methyl-2-oxo-2,3-dihydro-1H-imidazol-1-yl)-[1,1′-biphenyl]-3-yl)-1-(piperidin-4-yl)pyridin-2(1H)-one] |  |  | 1 to 10 nM | 30 to 300 nM
Cn1ccn(-c2ccc(-c3cc(F)cc(-c4cccc(N5CC6CNCC6C5)c4)c3O)cc2Cl)c1=O (stereo not shown) [Example 943, 1-(3-chloro-5′-fluoro-3″-(hexahydropyrrolo[3,4-c]pyrrol-2(1H)-yl)-2′-hydroxy-[1,1′:3′,1″-terphenyl]-4-yl)-3-methyl-1,3-dihydro-2H-imidazol-2-one] | 1 to 10 nM | 0.3 to 30 nM |  | 
O=C1CCN1c1ccc(-c2cc(F)cc(-c3ccnc(N4CCNCC4)c3)c2O)cc1Cl [Example 417, 1-(3-chloro-5′-fluoro-2′-hydroxy-3′-(2-(piperazin-1-yl)pyridin-4-yl)-[1,1′-biphenyl]-4-yl)azetidin-2-one] |  |  | 1 to 10 nM | 300 to 3000 nM
Cn1ccn(-c2ccc(-c3cc(F)cc(-c4cncc(N5CC[C@](C)(O)C5)c4)c3O)cc2Cl)c1=O [Example 729, (S)-1-(3-chloro-5′-fluoro-2′-hydroxy-3′-(5-(3-hydroxy-3-methylpyrrolidin-1-yl)pyridin-3-yl)-[1,1′-biphenyl]-4-yl)-3-methyl-1H-imidazol-2(3H)-one] |  |  | 0.01 to 1 nM | 0.3 to 30 nM
Cc1ncc(-c2cc(F)cc(-c3ccc(-n4ccn(C)c4=O)c(Cl)c3)c2O)cc1N1CCN(C2CCC2)CC1 [Example 883] | 1 to 10 nM | 0.3 to 30 nM |  | 
CN(C)C1(c2cccc(-c3cc(F)cc(-c4ccc(-n5ccn(C)c5=O)c(Cl)c4)c3O)c2)CC1 [Example 788, 1-(3-chloro-3″-(1-(dimethylamino)cyclopropyl)-5′-fluoro-2′-hydroxy-[1,1′:3′,1″-terphenyl]-4-yl)-3-methyl-1H-imidazol-2(3H)-one] |  |  | 10 to 100 nM | 300 to 3000 nM
